Assays:
[1] = system: SNU-16; assay: Cell SNU-16 assay; type: cell-based
[2] = target: FGFR2 (Homo sapiens (Human), UniProt P21802); assay: Biochemical FGFR2 Caliper assay
[3] = Homo sapiens, SNU-16, SNU-16 cells

Chain of FGFR2 (P21802 22-821): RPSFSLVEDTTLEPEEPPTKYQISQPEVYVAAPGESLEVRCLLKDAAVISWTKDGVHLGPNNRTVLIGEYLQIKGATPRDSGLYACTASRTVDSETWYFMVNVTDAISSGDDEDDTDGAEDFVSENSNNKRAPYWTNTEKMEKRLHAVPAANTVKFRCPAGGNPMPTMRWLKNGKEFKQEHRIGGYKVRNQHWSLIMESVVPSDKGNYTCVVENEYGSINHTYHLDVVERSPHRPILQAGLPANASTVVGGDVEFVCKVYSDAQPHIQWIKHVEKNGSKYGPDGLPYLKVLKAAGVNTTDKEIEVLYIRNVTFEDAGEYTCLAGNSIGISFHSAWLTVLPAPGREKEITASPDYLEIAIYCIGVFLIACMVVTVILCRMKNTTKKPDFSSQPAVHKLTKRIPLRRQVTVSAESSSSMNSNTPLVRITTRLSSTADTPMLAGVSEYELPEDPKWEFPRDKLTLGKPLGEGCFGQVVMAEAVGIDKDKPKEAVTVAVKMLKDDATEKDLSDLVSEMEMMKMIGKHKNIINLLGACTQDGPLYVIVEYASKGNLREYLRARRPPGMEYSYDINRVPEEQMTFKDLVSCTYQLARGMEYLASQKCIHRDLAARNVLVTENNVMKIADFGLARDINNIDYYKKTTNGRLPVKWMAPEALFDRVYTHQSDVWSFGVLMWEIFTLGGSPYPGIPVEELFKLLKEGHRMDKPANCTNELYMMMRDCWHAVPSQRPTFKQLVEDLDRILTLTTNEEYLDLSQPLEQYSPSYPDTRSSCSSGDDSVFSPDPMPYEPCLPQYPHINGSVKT

| Compound | IC50 [1, 3] [nM] | IC50 [2] [nM] | IC50 ([1]; SNU-16 cells) [nM] |
| --- | --- | --- | --- |
| C=C(C)C(=O)Nc1ccc(-c2[nH]c3ncnc(N)c3c2-c2ccc(Oc3ncc(F)cn3)c(F)c2)cc1 [Example 815] | 1000 to 100000 | 250 to 1000 |  |
| C=CC(=O)N(C)C1CCC(c2c(-c3ccc(Oc4cccc(C)n4)cc3)c3c(N)ncnc3n2C)C1 (centres unmarked) [Example 816] | 100 to 250 | 250 to 1000 |  |
| C=CC(=O)N1CCC(c2c(-c3cnn(-c4ccccc4C)c3)c3c(N)ncnc3n2C)C1 (centres unmarked) [Example 817] | 100 to 250 | 100 to 250 |  |
| C=CC(=O)N1CC(c2c(-c3ccc(Oc4cccc(C)n4)cc3)c3c(N)ncnc3n2C)C[C@@H]1CO (some centres unmarked) [Example 819] | 250 to 1000 | 250 to 1000 |  |
| C=C(C)C(=O)Nc1ccc(-c2c(-c3ccc(Oc4cccc(C)n4)cc3)c3ncncc3n2C)cc1 [Example 820] | ≤ 100 | < 100 |  |
| C=CC(=O)N1CCC(c2cn3ncnc(N)c3c2-c2ccc(Oc3cccc(C)n3)cc2)C1 (centres unmarked) [Example 828] | 250 to 1000 | 1000 to 100000 |  |
| C=C(C)C(=O)Nc1ccc(-c2[nH]c3cncnc3c2-c2ccc(Oc3cccc(C)n3)cc2)cc1 [Example 831] | 100 to 250 | < 100 |  |
| C=CC(=O)N1CCC(O)(c2c(-c3ccc(Oc4cccc(C)n4)cc3)c3c(N)ncnc3n2C)C1 (centres unmarked) [Example 833] | 250 to 1000 | 100 to 250 |  |
| C=CC(=O)N1CC(c2c(-c3ccc(Oc4cccc(C)n4)cc3)c3c(N)ncnc3n2C)C[C@@H]1C (some centres unmarked) [Example 839] | ≤ 100 | < 100 |  |
| C=CC(=O)N1CCC(c2c(-c3ccc(Oc4cccc(C)n4)cc3)c3c(N)ncnc3n2C)C1(C)C (centres unmarked) [Example 844] | 1000 to 100000 | 1000 to 100000 |  |
| C=CC(=O)N1CCC(n2cc(-c3c(-c4ccc(C(=O)NC5CCOC5)cc4)c4c(N)ncnc4n3C)cn2)CC1 (centres unmarked) [Example 845] | 250 to 1000 | 250 to 1000 |  |
| C=CC(=O)N1CC(c2c(-c3ccc(Oc4cccc(C)n4)cc3)c3c(N)ncnc3n2C)C[C@H]1C (some centres unmarked) [Example 847] | 250 to 1000 | 250 to 1000 |  |
| C=CC(=O)N1CCC(n2cc(-c3c(-c4ccc(C(=O)N5CC6CC5C6)cc4)c4c(N)ncnc4n3C)cn2)CC1 [Example 848] | 100 to 250 | 100 to 250 |  |
| C=CC(=O)N1CCC(n2cc(-c3c(-c4ccc(C(=O)N(C)Cc5nc(C)no5)cc4)c4c(N)ncnc4n3C)cn2)CC1 [Example 849] | 250 to 1000 | 100 to 250 |  |
| C=CC(=O)N1CCC(N)(c2c(-c3ccc(Oc4cccc(C)n4)cc3)c3c(N)ncnc3n2C)C1 (centres unmarked) [Example 850] | 1000 to 100000 | 1000 to 100000 |  |
| C=CC(=O)N1CCC(n2cc(-c3c(-c4ccc(Oc5ccn(C)n5)cc4)c4c(N)ncnc4n3C)cn2)CC1 [Example 855] | 1000 to 100000 | 250 to 1000 |  |
| C=C(C)C(=O)Nc1ccc(-c2[nH]c3ncnc(N)c3c2-c2ccc(Oc3cccc(C)n3)cc2)nc1 [Example 857] | 1000 to 100000 | 1000 to 100000 |  |
| Cn1c(C2CCN(C#N)C2)c(-c2ccc(C(=O)N3CCCC3)cc2)c2c(N)ncnc21 (centres unmarked) [Example 858] | ≤ 100 | < 100 |  |
| C=CS(=O)(=O)N1CCC(c2c(-c3ccc(C(=O)N4CCCC4)cc3)c3c(N)ncnc3n2C)C1 (centres unmarked) [Example 859] | 1000 to 100000 | 1000 to 100000 |  |
| C=C(C)C(=O)Nc1cc(-c2c(-c3ccc(C(=O)N4CCCC4)cc3)c3c(N)ncnc3n2C)n(C)n1 [Example 865] |  | 100 to 250 | 250 to 1000 |
| C=C(C)C(=O)Nc1cc(-c2c(-c3ccc(C(=O)N4CCCC4)cc3)c3c(N)ncnc3n2C)n(C)n1 [Example 866] |  | < 100 | ≤ 100 |
| C=C(C)C(=O)Nc1ccc(-c2nn3ccnc(N)c3c2C2=CCC(C(=O)N3CCCC3)CC2)cc1 (centres unmarked) [Example 868] | 1000 to 100000 | 1000 to 100000 |  |
| C=Cc1ncc(-c2c(-c3ccc(Oc4nccc(C)n4)cc3)c3c(N)ncnc3n2C)cn1 [Example 877] | 250 to 1000 | 100 to 250 |  |

Results, then the compound that gave them:

| IC50 [1, 3] [nM] | IC50 [2] [nM] | IC50 ([1]; SNU-16 cells) [nM] | Compound |
| --- | --- | --- | --- |
| 250 to 1000 | 250 to 1000 |  | C=C(C)C(=O)Nc1ccc(-c2[nH]c3ncnc(N)c3c2-c2ccc(S(=O)(=O)C3CCCC3)cc2)cc1 [Example 818] |
| 1000 to 100000 | 1000 to 100000 |  | C=C(C)C(=O)Nc1ccc(-c2cn3ncnc(N)c3c2-c2ccc(C(=O)N3CCCCC3)cc2)cc1 [Example 821] |
| 250 to 1000 | 250 to 1000 |  | C=CC(=O)Nc1ccc(-c2[nH]c3ncnc(N)c3c2-c2ccc(Oc3ccn(C)n3)cc2)cc1 [Example 822] |
| 250 to 1000 | 100 to 250 |  | C=C(C)C(=O)Nc1ccc(-c2cn3ncnc(N)c3c2-c2ccc(C(=O)NCC(F)(F)F)cc2)cc1 [Example 823] |
| 250 to 1000 | 100 to 250 |  | C=C(C)C(=O)Nc1ccc(-c2c(-c3ccc(Oc4cccc(C)n4)cc3)c3c(N)ncnn3c2C#N)cc1 [Example 824] |
| ≤ 100 | 100 to 250 |  | C=C(C)C(=O)Nc1ccc(-c2cn3ncnc(N)c3c2-c2ccc(C(=O)N3CCCC3)cc2)cc1 [Example 825] |
| 250 to 1000 | 250 to 1000 |  | C=C(C)C(=O)Nc1ccc(-c2cn3ncnc(N)c3c2-c2ccc(S(=O)(=O)N3CCCC3)cc2)cc1 [Example 826] |
| 1000 to 100000 | 1000 to 100000 |  | C=C(C)C(=O)Nc1ccc(-c2cn3ncnc(N)c3c2-c2ccc(Oc3ncc(F)cn3)c(F)c2)cc1 [Example 827] |
| ≤ 100 | < 100 |  | C=CC(=O)Nc1ccc(-c2cn3ncnc(N)c3c2-c2ccc(Oc3cccc(C)n3)cc2)cc1 [Example 829] |
| ≤ 100 | < 100 |  | C=C(C)C(=O)Nc1ccc(-c2cn3ncnc(N)c3c2-c2ccc(C(=O)NC3CCC3)cc2)cc1 [Example 830] |
| 1000 to 100000 | 1000 to 100000 |  | C=C(C)C(=O)Nc1ccc(-c2c(-c3ccc(C(=O)NCC(F)(F)F)cc3)c3c(N)ncnn3c2CO)cc1 [Example 832] |
| 250 to 1000 | 250 to 1000 |  | C=C(C)C(=O)Nc1ccc(-c2cn3ncnc(N)c3c2-c2ccc(S(=O)(=O)NC3CCC3)cc2)cc1 [Example 834] |
| 1000 to 100000 | 1000 to 100000 |  | C=CC(=O)Nc1ccc(-c2c(-c3ccc(Oc4cccc(C)n4)cc3)c3c(N)ncnn3c2CO)cc1 [Example 835] |
| ≤ 100 | < 100 |  | C=C(C)C(=O)Nc1ccc(-c2c(-c3ccc(Oc4cccc(C)n4)cc3)c3c(N)ncnn3c2C)cc1 [Example 836] |
| ≤ 100 | < 100 |  | C=CC(=O)Nc1ccc(-c2cn3ncnc(N)c3c2-c2ccc(C(=O)N3CCCCC3)cc2)cc1 [Example 837] |
| ≤ 100 | < 100 |  | C=CC(=O)Nc1ccc(-c2cn3ncnc(N)c3c2-c2ccc(C(=O)NCC(F)(F)F)cc2)cc1 [Example 838] |
| ≤ 100 | < 100 |  | C=C(C)C(=O)Nc1ccc(-c2cn3ncnc(N)c3c2-c2ccc(C(=O)N3CC4CC3C4)cc2)cc1 [Example 840] |
| 250 to 1000 | 250 to 1000 |  | C=C(C)C(=O)Nc1ccc(-c2cn3ncnc(N)c3c2-c2ccc(C(=O)NC3CCOC3)cc2)cc1 (centres unmarked) [Example 841] |
| 1000 to 100000 | 250 to 1000 |  | C=C(C)C(=O)Nc1ccc(-c2cn3ncnc(N)c3c2-c2ccc(C(=O)NCC(C)(C)O)cc2)cc1 [Example 842] |
| 250 to 1000 | 250 to 1000 |  | C=C(C)C(=O)Nc1ccc(-c2cn3ncnc(N)c3c2C2=CCC(C(=O)N(C)C)CC2)cc1 (centres unmarked) [Example 843] |
| 1000 to 100000 | < 100 |  | C=C(C)C(=O)Nc1ccc(-c2c(-c3ccc(C(=O)N4CCCCC4)cc3)c3c(N)ncnn3c2CO)cc1 [Example 846] |
| 1000 to 100000 | 1000 to 100000 |  | C=CC(=O)N1CCC(n2cc(-c3c(-c4ccc(C(=O)NCC(C)(C)OC)cc4)c4c(N)ncnc4n3C)cn2)CC1 [Example 851] |
| 1000 to 100000 | 250 to 1000 |  | C=C(C)C(=O)Nc1ccc(-c2cn3ncnc(N)c3c2-c2ccc(C(=O)NCC(C)(C)OC)cc2)cc1 [Example 852] |
| 100 to 250 | 250 to 1000 |  | C=C(C)C(=O)Nc1ccc(-c2c(-c3ccc(C(=O)c4cccc(C)n4)cc3)c3c(N)ncnn3c2COC)cc1 [Example 853] |
| ≤ 100 | 100 to 250 |  | C=CC(=O)N1CCC(n2cc(-c3c(-c4ccc(C(=O)NCC(C)(C)O)cc4)c4c(N)ncnc4n3C)cn2)CC1 [Example 854] |
| 250 to 1000 | 250 to 1000 |  | C=C(C)C(=O)Nc1ccc(-c2c(-c3ccc(Oc4cccc(C)n4)cc3)c3c(N)ncnn3c2CN(C)C)cc1 [Example 856] |
| 1000 to 100000 | 1000 to 100000 |  | C=C(C)C(=O)Nc1ccc(-c2nn3ccnc(N)c3c2-c2ccc(C(=O)N3CCCC3)cc2)cc1 [Example 862] |
|  | 1000 to 100000 | 100 to 250 | C=C(C)C(=O)Nc1ccc(-c2c(-c3ccc(C(=O)N4CCCC4)cc3)c3c(N)n[nH]c(=O)c3n2C)cc1 [Example 870] |
| ≤ 100 | 100 to 250 |  | C=C(C)C(=O)Nc1ccc(-c2c(-c3ccc(C(=O)N4CCCC4)cc3)c3c(N)nn(C)c(=O)c3n2C)cc1 [Example 878] |

— US11780845B2 (Relay Therapeutics, Inc., priority 2019, dated 2023)
